# Experiments:
# [1] = test system: mild and moderate dementia of the Alzheimer type; experiment: rember™ Phase 2 study: ADAS-cog change over 24 weeks; conditions: for Estimate, change in ADAS-cog score vs intercept, linear mixed effects / Estimate, change in ADAS-cog score vs intercept, linear least squares / Estimate, change in ADAS-cog score vs intercept (placebo), linear least squares / Estimate, change in ADAS-cog score vs intercept (placebo), linear mixed effects: ITT/OC; for Estimate, change in ADAS-cog score vs intercept, linear mixed effects / Estimate, change in ADAS-cog score vs intercept, linear least squares: with interaction term; for Estimate, change in ADAS-cog score vs intercept (placebo), linear least squares / Estimate, change in ADAS-cog score vs intercept (placebo), linear mixed effects: without interaction term
# [2] = test system: CDR-moderate subjects; experiment: rember™ study: NPI (Neuropsychiatric Inventory) over 50 weeks; format: in vivo, human; conditions: vs placebo-low arm
# [3] = Adverse effects in the rember™ trial; format: in vivo, human
# Experimental: Thus subjects in the Least Exposed Dose arm (ie subjects switched to the low (100 mg) dose after 6 months) who continued to decline withdrew from the study largely after 24 weeks. […] However, biased withdrawal was not a factor in CDR-mild subjects in the same low (100 mg) comparator treatment arm. Therefore the primary driver of non-random withdrawal in the rember™ trial was the experience of continuing rapid decline which was most apparent in the CDR-moderate group.
# [4] = test system: mild and moderate dementia of the Alzheimer type; experiment: Mild-brought-forward confirmatory analysis of ADAS-cog over 25 weeks; format: in vivo, human; conditions: for Mild-brought-forward CDR-mild effect size over 25 weeks / Mild-brought-forward CDR-moderate effect size over 25 weeks / Mild-brought-forward confirmatory analysis, overall effect size over 25 weeks: vs placebo/placebo-low; for Mild-brought-forward confirmatory analysis, overall change from baseline over 25 weeks: whole population, mixed-effects model
# [5] = test system: mild and moderate dementia of the Alzheimer type; experiment: rember™ study: MMSE over 50 weeks; format: in vivo, human
# Excerpt: Another standardised test is the Mini-Mental State Examination [MMSE] which was proposed as a simple and quickly administered method for grading cognitive function (Folstein M F, Folstein S E & McHugh P R. ‘Mini-mental state’. A practical method for grading the cognitive state of patients for the clinician. Journal of Psychiatric Research 1975 12 189-198.). The MMSE is the most widely used cognitive screening instrument for the detection of cognitive dysfunction due to dementia in geriatric and psychiatric patients (Tombaugh T N & McIntyre N J. The mini-mental state examination: a comprehensive review. Journal of the American Geriatric Society 1992 40 922-935). The MMSE evaluates orientation, memory, attention and language functions.
# The mean decline observed over the 50-week study in placebo-treated subjects was 7.8 ADAS-cog units (FIG. 19). […] On the ADAS-cog scale, about 60% of subjects improved or stayed the same at 50 weeks. On the MMSE scale, 62% improved or stayed the same at 50 weeks. The odds of a patient not declining on either scale were about 3.4 times better at the 60 mg dose than on placebo-low. The corresponding effect sizes were −6.8 ADAS-cog units and 3.2 MMSE units over the 50-week trial.
# [6] = week 24, CDR-mild, low (100 mg) tid
# [7] = week 24, CDR-moderate, 30 mg tid
# [8] = week 24, CDR-moderate, 60 mg tid
# [9] = week 24, CDR-moderate, low (100 mg) tid
compound,measurement,setting,value
"CN(C)c1ccc2nc3ccc(=[N+](C)C)cc-3sc2c1 [rember™, methylthioninium chloride]","Estimate, change in ADAS-cog score vs intercept, linear mixed effects","[1]; week 24, CDR-mild, 30 mg tid",0.33 ADAS-cog units
same,"Estimate, change in ADAS-cog score vs intercept, linear least squares","[1]; week 24, CDR-mild, 60 mg tid",−0.66 ADAS-cog units
same,"Estimate, change in ADAS-cog score vs intercept, linear mixed effects","[1]; week 24, CDR-mild, 60 mg tid",−0.77 ADAS-cog units
same,"Estimate, change in ADAS-cog score vs intercept, linear least squares",[1]; [6],−0.05 ADAS-cog units
same,"Estimate, change in ADAS-cog score vs intercept, linear mixed effects",[1]; [6],−0.21 ADAS-cog units
same,"Estimate, change in ADAS-cog score vs intercept, linear least squares",[1]; [7],1.11 ADAS-cog units
same,"Estimate, change in ADAS-cog score vs intercept, linear mixed effects",[1]; [7],−1.09 ADAS-cog units
same,"Estimate, change in ADAS-cog score vs intercept, linear least squares",[1]; [8],−2.74 ADAS-cog units
same,"Estimate, change in ADAS-cog score vs intercept, linear mixed effects",[1]; [8],−3.23 ADAS-cog units
same,"Estimate, change in ADAS-cog score vs intercept, linear least squares",[1]; [9],0.99 ADAS-cog units
same,"Estimate, change in ADAS-cog score vs intercept, linear mixed effects",[1]; [9],1.13 ADAS-cog units
same,"Estimate, change in ADAS-cog score vs intercept (placebo), linear least squares","[1]; week 24, 30 mg tid",0.00 ADAS-cog units
same,"Estimate, change in ADAS-cog score vs intercept (placebo), linear mixed effects","[1]; week 24, 30 mg tid",−0.07 ADAS-cog units
same,"Estimate, change in ADAS-cog score vs intercept (placebo), linear least squares","[1]; week 24, 60 mg tid",−0.95 ADAS-cog units
same,"Estimate, change in ADAS-cog score vs intercept (placebo), linear mixed effects","[1]; week 24, 60 mg tid",−1.13 ADAS-cog units
same,"Estimate, change in ADAS-cog score vs intercept (placebo), linear least squares","[1]; week 24, low (100 mg) tid",0.08 ADAS-cog units
same,"Estimate, change in ADAS-cog score vs intercept (placebo), linear mixed effects","[1]; week 24, low (100 mg) tid",−0.04 ADAS-cog units
same,mean effect sizes in moderate subjects over 24 weeks,"[1]; severity as interaction term, CDR-moderate, 60 mg dose",−2.7 to −3.7 ADAS-cog units
same,"NPI carer-distress scale, best effect size over 50 weeks",[2],−4.6 units
same,"NPI patient-disturbance scale, best effect size over 50 weeks",[2],−9.2 units
same,adverse effects,"[3]; low (100 mg) bd, second 6-months of the study","adverse effects, most notably diarrhea"
same,haematological side effects,[3]; tid vs. bd dosing regimes,showed a clear dose-response profile
same,Mild-brought-forward CDR-mild change over 25 weeks,[4]; 30 mg,3.07 ADAS-cog units
same,Mild-brought-forward CDR-mild change over 25 weeks,[4]; 60 mg,1.07 ADAS-cog units
same,Mild-brought-forward CDR-mild change over 25 weeks,[4]; low (100 mg),3.60 ADAS-cog units
same,Mild-brought-forward CDR-mild effect size over 25 weeks,[4]; 30 mg,−1.19 ADAS-cog units
same,Mild-brought-forward CDR-mild effect size over 25 weeks,[4]; 60 mg,−3.19 ADAS-cog units
same,Mild-brought-forward CDR-mild effect size over 25 weeks,[4]; low (100 mg),−0.66 ADAS-cog units
same,Mild-brought-forward CDR-moderate change over 25 weeks,[4]; 60 mg,0.30 ADAS-cog units
same,Mild-brought-forward CDR-moderate change over 25 weeks,[4]; low (100 mg),4.82 ADAS-cog units
same,Mild-brought-forward CDR-moderate effect size over 25 weeks,[4]; 30 mg,4.33 ADAS-cog units
same,Mild-brought-forward CDR-moderate effect size over 25 weeks,[4]; 60 mg,−5.67 ADAS-cog units
same,Mild-brought-forward CDR-moderate effect size over 25 weeks,[4]; low (100 mg),−0.54 ADAS-cog units
same,"Mild-brought-forward confirmatory analysis, overall effect size over 25 weeks",[4]; 30 mg,−2.39 ADAS-cog units
same,"Mild-brought-forward confirmatory analysis, overall effect size over 25 weeks",[4]; 60 mg,−3.85 ADAS-cog units
same,"Mild-brought-forward confirmatory analysis, overall effect size over 25 weeks",[4]; low (100 mg),−0.84 ADAS-cog units
same,"Mild-brought-forward confirmatory analysis, overall change from baseline over 25 weeks",[4]; 30 mg,2.26 ADAS-cog units
same,"Mild-brought-forward confirmatory analysis, overall change from baseline over 25 weeks",[4]; 60 mg,0.78 ADAS-cog units
same,"Mild-brought-forward confirmatory analysis, overall change from baseline over 25 weeks",[4]; low (100 mg),3.81 ADAS-cog units
same,"initial symptomatic improvement at 15 weeks, MMSE",[5]; 60 mg dose,0.8 MMSE units
same,effect size on MMSE over the 50-week trial,[5]; 60 mg tid,3.2 MMSE units
same,subjects improved or stayed the same on the MMSE scale at 50 weeks,[5]; 60 mg tid,62%
